The text below walks through data of US9296687B2, “Modulators of HSP70/DnaK function and methods of use thereof” (The Trustees of the University of Pennsylvania, priority 2008, dated 2016).

“Also recorded” adds a separate entry of the source.

The subject of series [1] is Eμ-Myc transgenic mice. Nature of the series: Eμ-Myc mouse model of lymphomagenesis. The series is classed as in vivo. The note with it: 20 mg/kg weekly i.p. from 6 weeks of age. The procedure: To evaluate the efficacy of PES as a chemopreventative agent, Eμ-Myc transgenic mice were injected every 5 days, starting at 8 weeks of age, with either vehicle or PES (40 mg/kg) prepared in PBS. All animals received a total of 7 injections, either with PES or vehicle. Consequently, no injection was given after day 86. All mice were observed daily for signs of morbidity and the development of lymphoma. All experiments with mice were approved by, and conformed to, the guidelines of the Institutional Animal Care and Use Committee of the Fox Chase Cancer Center. These mice may also be used to advantage to test the beneficial therapeutic combinations of agents and/or treatments described herein.
Beginning at 6 weeks of age, Eμ-myc transgenic mice were treated either with vehicle, 20 mg/kg PES or 20 mg/kg PES-Cl with weekly i.p. injections of tested compound (FIG. 27).

Series [2] deals with H1299 and FaDu cells. Nature of the series: Western blot of autophagy and apoptosis markers. The series is classed as cell-based, human. The note with it: 10 μM, 24, 48 and 72 hours. The procedure: Tumorogenic cells H1299 and FaDu cells were seeded in 10 cm plates and were treated with 10 μM PES or 10 μM PES-Cl. DMSO treated cells were used as a vehicle treated control. Twenty-four, 48 and 72 hours post-treatment the cells were scrapped and protein extracts were generated. Western blotting was performed as described hereinabove. The antibodies used in the protocol were p62 (Santa Cruz), Hsp70 (Cell Signaling), cleaved lamin A (Cell Signaling), Hsp40 (Cell Signaling), γH2A.X (Millipore), and actin (Sigma).

The subject of series [3] is FADU cells. Nature of the series: Guava Nexin assay (Annexin V / 7-AAD). The series is classed as cell-based, human. The note with it: 10 μM, 24, 48 and 72 hours. The text has this: (§1) The effect of PES-Cl on apoptosis was observed using Guana Nexin Reagent (Millipore) in H1299 and FaDu cells. The Guana Nexin Assay utilizes Annexin V-PE to detect phosphatidylserine (PS) on the external membrane of apoptotic cells. The cell impermeant dye, 7-AAD, is also used in the Guava Nexin Assay as an indicator of cell membrane structural integrity. 7-AAD is excluded from live, healthy cells as wells as early apoptotic cells. Three populations of cells can be distinguished in the assay: Non-Apoptotic cells (Annexin V(−) and 7-AAD(−)), Early Apoptotic cells (Annexin V(+) and 7-AAD(−)), and Late Stage Apoptotic and dead cells (Annexin V(+) and 7-AAD(+)). The H1299 and FaDu cells were seeded on 24-well plates and treated with 10 μM PES or 10 μM PES-Cl. DMSO treated cells were used as a vehicle control. Four, 24 and 48 hours post-treatment, the H1299 cells were washed with PBS and trypsinized. For FaDu cells, the time course was 24, 48 and 72 hours. The cells were pelleted and resuspended in Guava Nexin reagent as per the manufacturer instructions and the readings were obtained with a Guava reader (Guava Technologies, Millipore). The total number of cells that were in Late Stage Apoptosis or dead (by necrotic or apoptotic mechanisms) was analyzed in density plots to determine as Annexin V positive.

The subject of series [4] is H1299 cells. Briefly: Guava Nexin assay (Annexin V / 7-AAD). As to conditions: 10 μM, 4, 24 and 48 hours. The series is classed as cell-based, human.
Excerpt: as §1

For series [5], the system named is H1299 and FaDu; 6113 and WI38. Briefly: MTT assay, tumorogenic versus normal fibroblast cell lines. The series is classed as cell-based, human. As to conditions: various concentrations, 48 hours. The procedure:
(§2) H1299 cells were seeded on […] and treated with 10 μM PES or 10 μM PES-Cl. DMSO treated cells were used as a control and the proliferation of the H1299 cells was observed over 24 and 48 hours of treatment. The cells were imaged by light microscopy with 20× magnification (FIG. 28). Non-tumorogenic and tumorogenic cells were then treated with PES-Cl to observe its toxicity and effect on proliferation. Two tumorogenic cell lines (H1299 and FaDu) and two normal fibroblast cell lines (6113 and WI38) were seeded on a 96-well plate. The cells were treated with various concentrations of PES and PES-Cl. Forty-eight hours post-treatment MTT assays (Cayman Chemical Company) were performed (FIG. 29).
On the technique in general: Formazan colour is commonly taken as a measure of viable cells.

The test system of series [6] is H1299 cells. Nature of the series: Proliferation observed by light microscopy. The series is classed as cell-based, human. The note with it: 10 μM, 24 and 48 hours. The procedure:
as §2

In series [7] the test system is SKBR3 human breast adenocarcinoma cells. Briefly: MTT assay. The series is classed as cell-based. The note with it: various concentrations, 72 hours. The procedure: SKBR3 human breast adenocarcinoma cells were seeded and treated with PES and PES-Cl at various concentrations.
For series [8], the system named is Scc56 cell line. Briefly: MTT cell viability assay, PES-Cl with Temsirolimus. The series is classed as cell-based, human. As to conditions: singly and together, varying concentrations. The procedure:
PES-Cl was tested in combination with Temsirolimus, an mTOR inhibitor, to determine whether they act synergistically to kill cells. Head and neck cancer cells of the Scc56 cell line were treated with PES-Cl and Temsirolimus, singly and together, at varying concentrations utilizing an MTT assay.

Series [9] concerns the target HSP70 (Homo sapiens, UniProt P0DMV8). Nature of the series: Capture of HA-tagged HSP70 constructs from transfected H1299 cells with biotinylated compound. The series is classed as binding. Also noted: expressed in transfected cells; host or cells: H1299. The note with it: biotinylated compound, 6 hours. The procedure: FIG. 1. PES Binds to HSP70. (A) Whole cell extracts (WCE) prepared from A875 and BCL-xL over-expressing U2OS human osteosarcoma cells (BX-U2OS) cells, treated with Biotin or Biotin-PES (B-PES), were captured using NeutrAvidin agarose resins. HSP70-family proteins were identified as the major product in the excised band of ˜70 kDa shown in both Coomassie gels. (B and C) WCE were prepared from the cell lines indicated following 24 h treatment with 20 μM Biotin or B-PES and examined for the expression of proteins indicated (left panel of B and C) by western blot analysis; note that different exposure times were used to visualize these proteins. […] (D) In vitro evidence for an interaction between B-PES and HSP70. Full-length human HSP70 and human HSP90 proteins were in vitro translated in the presence of ^35S-methionine, mixed with B-PES coupled to NeutrAvidin resins, and eluted using 100 mM DTT. The resulting DTT eluates were separated by polyacrylamide gel electrophoresis (SDS-PAGE) and visualized by autoradiography. (E) B-PES interacts with the C-terminal region of HSP70. H1299 cells were transfected with the indicated hemagglutinin (HA)-tagged constructs and exposed to B-PES. B-PES containing complexes were captured by NeutrAvidin Resins, eluted following 100 mM DTT treatment, and immunoblotted with anti-HA antibody following SDS-PAGE. (F) Non-transformed human IMR90 fibroblasts or H1299 lung carcinoma cells were treated with the indicated concentrations of PES for 24 h and cell viability was determined by MTT assays. (G) WCE were prepared from the cell lines indicated following 5 hr treatment with 20 μM PES or B-PES and examined for the expression of proteins indicated (left panel) by western blot analysis; note that different exposure times were used to visualize these proteins. B-PES-containing complexes were captured by NeutrAvidin resins, eluted following 50 mM DTT treatment, and immunoblotted using the indicated antibodies.
The free amide group of PES-Cl was biotinylated and added to HA-tagged HSP70-transfected H1299 cells. The treatment of the cells occurred for 6 hours. The complexes were pulled down with NeutrAvidin beads, eluted with 100 mM DTT treatments, separated with SDS-PAGE and detected with anti-HA antibody (Millipore) by Western blot.
Docking studies were performed using the C-terminal HSP70 crystal structure (FIG. 32) to elucidate the PES binding site in silico (FIG. 33). Blind docking methods were used in the program AutoDock to locate potential PES binding sites. These methods use a course grid docking approach, encompassing the entire protein, to identify favorable binding sites using a known binding ligand, and are examined by hand to support the AutoDock data. […]

Chain of HSP70 (P0DMV8 2-641): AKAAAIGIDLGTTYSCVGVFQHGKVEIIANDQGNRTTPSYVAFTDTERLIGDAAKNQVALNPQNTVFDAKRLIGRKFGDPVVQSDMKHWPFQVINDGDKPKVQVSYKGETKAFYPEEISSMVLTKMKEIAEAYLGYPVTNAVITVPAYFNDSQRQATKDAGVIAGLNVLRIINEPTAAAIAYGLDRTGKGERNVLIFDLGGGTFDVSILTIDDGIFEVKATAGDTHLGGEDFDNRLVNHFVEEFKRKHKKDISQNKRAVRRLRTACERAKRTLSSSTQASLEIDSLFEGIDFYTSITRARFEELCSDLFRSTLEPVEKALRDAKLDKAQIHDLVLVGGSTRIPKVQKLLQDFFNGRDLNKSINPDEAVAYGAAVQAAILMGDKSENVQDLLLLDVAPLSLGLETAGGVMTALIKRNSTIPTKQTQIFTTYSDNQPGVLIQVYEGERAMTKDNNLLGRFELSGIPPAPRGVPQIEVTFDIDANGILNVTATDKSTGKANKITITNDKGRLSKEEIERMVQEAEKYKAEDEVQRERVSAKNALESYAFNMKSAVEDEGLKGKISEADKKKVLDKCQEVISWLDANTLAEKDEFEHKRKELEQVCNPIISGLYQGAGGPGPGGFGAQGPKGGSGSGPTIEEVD

In the case of `NS(=O)(=O)C#Cc1cccc(Cl)c1` [PES-Cl, 2-(3-chlorophenyl)-ethynesulfonamide], the survival entry in [1] is “extended survival”. In addition, in series [2], the apoptosis result is recorded as “induced apoptosis” and the autophagy result was “inhibited autophagy”. Moreover, the “apoptosis and cell death (Annexin V positive cells)” value in [3] was “induced apoptosis and cell death; also recorded: superior compound for induction of apoptosis”. For the same compound, the “apoptosis and cell death (Annexin V positive cells)” value in series [4] is “induced apoptosis and cell death; also recorded: superior compound for induction of apoptosis”. In series [5], the “cell survival, tumorogenic versus non-tumorogenic cells” value was “greater concentration dependent effect on cell survival in tumorogenic cells; also recorded: superior and specific inhibitor of proliferation of tumor cells with limited toxicity to normal cells”. Moreover, the proliferation entry in [6] is “inhibits the proliferation of H1299 cells”. Besides, in series [7], the “cytotoxicity compared to PES” value is “superior cytotoxic agent when compared to PES”. In series [8], the “combination effect with Temsirolimus” value was “synergistic effect resulting in enhanced dose-dependent cytotoxicity”. Moreover, the “interaction with HA-tagged HSP70” value in series [9] is “interact with HSP70”.
